From the NIST ThermoML archive (doi:10.1021/je300696c)
Numbers after ± are expanded uncertainties.

Assays:
[1] = refractive index (Na D-line) (dimensionless); details: 293.15 K; 101.33 kPa; Liquid; Standard Abbe refractometry
[2] = Liquid; for mass density: 293.15 K, 101.33 kPa, Vibrating tube method

SMILES	refractive index [1]	mass density [2] [kg/m3]	vapor or sublimation pressure ([2]; 447.7 K, Ebulliometric method (Recirculating still)) [kPa]	vapor or sublimation pressure ([2]; 447.74 K, Ebulliometric method (Recirculating still)) [kPa]	vapor or sublimation pressure ([2]; 369.09 K, Closed cell (Static) method) [kPa]	vapor or sublimation pressure ([2]; 350.21 K, Closed cell (Static) method) [kPa]	vapor or sublimation pressure ([2]; 354.3 K, Ebulliometric method (Recirculating still)) [kPa]	vapor or sublimation pressure ([2]; 336.48 K, Closed cell (Static) method) [kPa]
CCCCCCCO [heptan-1-ol]	1.4227 ± 0.001	821.8 ± 0.3	96.5 ± 4.8	96.5 ± 4.8	–	–	–	–
CCCO [propan-1-ol]	1.3851 ± 0.0007	803.4 ± 0.3	–	–	96.5 ± 4.8	–	–	–
CCO [ethanol]	1.3609 ± 0.0007	788.9 ± 0.3	–	–	–	96.5 ± 4.8	–	–
CC(C)(C)O [2-methylpropan-2-ol]	1.3878 ± 0.0008	788.5 ± 0.3	–	–	–	–	96.5 ± 4.8	–
CO [methanol]	1.3285 ± 0.0007	791.2 ± 0.3	–	–	–	–	–	96.5 ± 4.8
